Earlier results, collected in patent US8337856B2, “Methods of treatment using anti-ERBB antibody-maytansinoid conjugates” (Immunogen, Inc., priority 2000, dated 2012).

Settings: clinical trials discontinued

For `COc1cc2cc(c1Cl)N(C)C(=O)C[C@H](OC(=O)[C@H](C)N(C)C(C)=O)[C@]1(C)O[C@H]1[C@H](C)[C@@H]1C[C@@](O)(NC(=O)O1)[C@H](OC)/C=C/C=C(\C)C2` [maytansine, Maytansine], the “adverse effects in clinical trials” value is listed as “serious adverse effects on the central nervous system and gastrointestinal system”.
